In patent US11980596B2 (priority 2017, dated 2024):

Legend:
[1] = test system: subjects with MDD at imminent risk for suicide; assay: MADRS total score, sustained response (Study […]2001); type: in vivo, human
Text: Primary efficacy variable/Primary Time point: Change from baseline (Day 1, predose) to Day 1, 4-hours postdose in MADRS total score. The MADRS consists of 10 items that cover all of the core depressive symptoms, with each item scoring from 0 (item is not present or is normal) to 6 (severe or continuous presence of the symptom). A higher score represents a more severe condition.
The primary efficacy endpoint is the change in MADRS total score from baseline to Day 1: 4-hours postdose. MADRS total scores range from 0 to 60. […] As this is a phase 2a proof-of-concept study, statistical significance is based on a two-sided alpha level of 0.20. All p-values presented in this document are two-sided.
Sustained response is defined as at least 50% reduction from baseline in MADRS total score with onset on Day 1: 4 hours postdose that is maintained through the end of the double-blind phase (Day 25). Four subjects in the esketamine 84 mg group and 2 subjects in the placebo group had sustained response throughout the double-blind phase.

[2] = test system: subjects with MDD at imminent risk for suicide; assay: MADRS suicide item ([…]2001); type: in vivo, human; conditions: 84 mg; Day 1: 4-hours postdose, Day 2 (DB), End Point (DB); two-sided level 0.20
Text: • a. Changes from baseline to Day 2 and Day 25 for the MADRS total score • b. Changes from baseline to Day 1 4-hours postdose, Day 2 and Day 25 for the MADRS Suicide Item • c. Changes from baseline to Day 1 4-hours postdose, Day 2, and Day 25 for the clinical global judgment of suicide risk from the Suicide Ideation and Behavior Assessment Tool (SIBAT) • d. Sustained response (Onset of Clinical Response) defined as at least 50% reduction from baseline in MADRS total score with onset on Day 1 that is maintained through the end of the double-blind phase (Day 25) • e. Changes from baseline to Day 1 4-hours postdose, Day 2, and Day 25 for the Beck Scale for Suicidal Ideation (BSS) • f. Changes from baseline to Day 1 4-hours postdose and Day 25 for the Beck Hopelessness Scale
Results of the change from baseline over time for the suicide item from the MADRS assessment can be found in Attachment 1.

[3] = test system: subjects with MDD at imminent risk for suicide; assay: Beck Hopelessness Scale (BHS) ([…]2001); type: in vivo, human; conditions: for BHS total score: change vs placebo: 84 mg
Text: The BHS is a self-reported measure to assess one's level of negative expectations or pessimism regarding the future. It consists of 20 true-false items that examine the respondent's attitude over the past week by either endorsing a pessimistic statement or denying an optimistic statement. For every statement, each response is assigned a score of 0 or 1. The total BHS score is a sum of item responses and ranges from 0 to 20, with a higher score representing a higher level of hopelessness.

[4] = test system: patients with treatment-resistant depression (TRD); assay: CGI-S (Example 7); type: in vivo, human
Experimental: Overall illness severity was assessed on the Clinical Global Impression of Severity (CGI-S) scale (Guy, “ECDEU Assessment Manual for Psychopharmacology—Revised (DHEW Publ No ADM 76-338)”, Rockville, Md.: U.S. Department of Health, Education, and Welfare, Public Health Service, Alcohol, Drug Abuse, and Mental Health Administration, NIMH Psychopharmacology Research Branch, Division of Extramural Research Programs; 1976, pp 218-222). Participants assessed their severity of anxiety on the Generalized Anxiety Disorder 7-item (GADS-7) Scale (See, Tables 157 and 158). See, Spitzer, “A brief measure for assessing generalized anxiety disorder—the GAD-7”, Arch. Intern. Med., 2006, 166(10): 1092-1097.

[5] = test system: subjects with MDD at imminent risk for suicide; assay: Study completion/withdrawal, double-blind phase ([…]2001); type: in vivo, human; conditions: esketamine 84 mg; all randomized analysis set, N = 36
Experimental: Of the 68 subjects in the all randomized analysis set, 19 (27.9%) subjects discontinued from the double-blind phase. More subjects in the esketamine 84 mg group discontinued due to adverse events (5 subjects in the esketamine 84 mg group versus 1 subject in the placebo group) whereas more subjects in the placebo group discontinued due to lack of efficacy (4 subjects in the placebo group versus 1 subject in the esketamine 84 mg group).

adult subjects with TRD = conditions: post dose
Experimental: Blood pressure and pulse/heart rate measurements were assessed supine with a completely automated device. Manual techniques were used only if an automated device is not available. Blood pressure and pulse/heart rate measurements were preceded by at least 5 minutes of rest in a quiet setting without distractions (e.g., television, cell phones).
Descriptive statistics of temperature, pulse/heart rate, respiratory rate, pulse oximetry, and blood pressure (systolic and diastolic) (supine) values and changes from baseline were summarized at each scheduled time point. The percentage of subjects with values beyond clinically important limits were summarized.

subjects with TRD = conditions: post dose
Experimental: The Clinician Administered Dissociative States Scale (CADSS) was measured prior to the start of each dose, at 40 minutes, and 1.5 hours postdose.

glutamate NMDA receptor = conditions: cited from earlier work
[6] = test system: P-gp, BCRP, OATP1B1, OATP1B3, MATE1, MATE2-K, OCT2, OAT1, OAT3; assay: Transporter substrate and inhibition studies; conditions: not told
adult female rats = assay: Single-dose neuronal toxicity study (neuronal vacuolation), intranasal esketamine (label); conditions: rat, in vivo
[7] = esketamine 84 mg minus placebo, ANCOVA LOCF
[8] = esketamine 84 mg, LOCF, ITT, N = 35
[9] = esketamine 84 mg, LOCF, ITT, N = 35, negative change = improvement
[10] = esketamine 84 mg, predose Day 1, ITT, N = 35
[11] = Period 1, esketamine 28 mg intranasal
[12] = Period 1, esketamine 56 mg intranasal
[13] = Period 1, esketamine 84 mg intranasal
[14] = Period 2, esketamine 28 mg intranasal
[15] = Period 2, esketamine 56 mg intranasal
[16] = Period 2, esketamine 84 mg intranasal

## CN[C@]1(c2ccccc2Cl)CCCCC1=O [esketamine, (S)-2-(2-chlorophenyl)-2-(methylamino)cyclohexanone]
[1]; 84 mg, Day 1, 4-hours postdose, ANCOVA
  MADRS: least-square mean difference from placebo: −5.3 (2.10)
[1]; [7]
  MADRS total score, change to Day 1 (DB): 4 H, Diff. of LS Means (SE): −5.3 (2.10)
  MADRS total score, change to Day 2 (DB), Diff. of LS Means (SE): −7.2 (2.85)
  MADRS total score, change to End Point (DB), Diff. of LS Means (SE): −4.5 (3.14)
[1]; [8]
  MADRS total score, Day 1 (DB): 4 H, Median (Range): 23.0 (7; 48)
  MADRS total score, Day 2 (DB), Median (Range): 18.0 (3; 42)
  MADRS total score, End Point (DB), Median (Range): 8.0 (0; 44)
[1]; [9]
  MADRS total score, Change from Baseline to Day 1 (DB): 4 H, Median (Range): −14.0 (−32; 1)
  MADRS total score, Change from Baseline to Day 2 (DB), Median (Range): −19.0 (−41; 1)
  MADRS total score, Change from Baseline to End Point (DB), Median (Range): −25.0 (−46; 13)
[1]; [10]
  MADRS total score, Baseline (DB), Median (Range): 38.0 (27; 49)
[2]
  MADRS suicide item: change from baseline vs placebo: Statistically significant differences favoring esketamine
[3]; Day 1: 4-hours postdose
  BHS total score: change vs placebo: no statistically significant difference
[3]; End Point (DB)
  BHS total score: change vs placebo: statistically superior
[3]; [7]
  BHS total score, change to Day 1 (DB): 4H, Diff. of LS Means (SE): −1.5 (1.47)
  BHS total score, change to End Point (DB), Diff. of LS Means (SE): −2.3 (1.66)
[3]; [8]
  BHS total score, Day 1 (DB): 4H, Median (Range): 14.0 (0; 20)
  BHS total score, End Point (DB), Mean (SD): 6.2 (5.96)
  BHS total score, End Point (DB), Median (Range): 4.0 (0; 20)
[3]; [9]
  BHS total score, Change from Baseline to Day 1 (DB): 4H, Mean (SD): −4.1 (5.63)
  BHS total score, Change from Baseline to Day 1 (DB): 4H, Median (Range): −2.0 (−16; 2)
  BHS total score, Change from Baseline to End Point (DB), Median (Range): −11.0 (−19; 0)
[3]; [10]
  BHS total score, Baseline (DB), Median (Range): 17.0 (9; 20)
[4]; [11]
  CGI-S Median (Range) at end point: 4.0 (3, 5)
  CGI-S Median Change (Range): −1.0 (−2, 1)
[4]; [12]
  CGI-S Median (Range) at end point: 4.0 (1, 5)
  CGI-S Median Change (Range): −1.0 (−3, 0)
[4]; [13]
  CGI-S Median (Range) at end point: 4.0 (1, 6)
  CGI-S Median Change (Range): −0.5 (−4, 0)
[4]; [14]
  CGI-S Median (Range) at end point: 4.0 (3, 5)
  CGI-S Median Change (Range): −1.0 (−1, 0)
[4]; [15]
  CGI-S Median (Range) at end point: 5.0 (4, 6)
  CGI-S Median Change (Range): −1.0 (−2, 0)
[4]; [16]
  CGI-S Median (Range) at end point: 4.0 (3, 5)
  CGI-S Median Change (Range): −1.0 (−2, 0)
[5]
  Withdrawn from double-blind phase: Lack of Efficacy: 1 (2.8%) subjects (%)
Adult subjects with TRD
  Blood pressure returned to normal range at: 90 min
  Time of peak of transient blood pressure increases: approximately 40 minutes
Subjects with TRD
  Dissociative and perceptual change symptoms (CADSS) resolved by: ≤ 1.5 h
Glutamate NMDA receptor
  Affinity for the glutamate NMDA receptor in vitro, fold greater than R-ketamine: 3 to 4 fold
[6]
  Inhibition of P-gp, BCRP, OATP1B1, OATP1B3, MATE1, MATE2-K, OCT2, OAT1 or OAT3: do not inhibit
  Substrate of P-gp, BCRP, OATP1B1 or OATP1B3: not a substrate
Adult female rats
  Safety margin to clinical exposure at the MRHD of 84 mg/day, AUC: 1.8 times
  Safety margin to clinical exposure at the MRHD of 84 mg/day, Cmax: 4.5 times
